Experiments:
[1] = target: T1, furin (Homo sapiens, UniProt P09958); test: SPR (Biacore X100, furin amine-coupled on CM5, steady-state affinity); also inhibits recombinant furin in a fluorimetric assay; assay type: binding
T1 construct: commercial recombinant Human Furin

[2] = tested on: SF-268; test: cells; design: glioma cell line sensitivity to 2OHOA, half maximal inhibitory concentration; settings: Homo sapiens, SF-268
[3] = tested on: U-118 MG; test: cells; design: glioma cell line sensitivity to 2OHOA, half maximal inhibitory concentration; settings: Homo sapiens, U-118-MG
[4] = tested on: U-251 MG; test: cells; design: glioma cell line sensitivity to 2OHOA, half maximal inhibitory concentration; settings: Homo sapiens, U-251
[5] = tested on: U-87 MG; test: cells; design: glioma cell line sensitivity to 2OHOA, half maximal inhibitory concentration; settings: Homo sapiens, U-87 MG
[6] = tested on: SF-295; test: cells; design: glioma cell line sensitivity to 2OHOA, half maximal inhibitory concentration; settings: Homo sapiens, SF-295

T1 sequence (P09958 108-794): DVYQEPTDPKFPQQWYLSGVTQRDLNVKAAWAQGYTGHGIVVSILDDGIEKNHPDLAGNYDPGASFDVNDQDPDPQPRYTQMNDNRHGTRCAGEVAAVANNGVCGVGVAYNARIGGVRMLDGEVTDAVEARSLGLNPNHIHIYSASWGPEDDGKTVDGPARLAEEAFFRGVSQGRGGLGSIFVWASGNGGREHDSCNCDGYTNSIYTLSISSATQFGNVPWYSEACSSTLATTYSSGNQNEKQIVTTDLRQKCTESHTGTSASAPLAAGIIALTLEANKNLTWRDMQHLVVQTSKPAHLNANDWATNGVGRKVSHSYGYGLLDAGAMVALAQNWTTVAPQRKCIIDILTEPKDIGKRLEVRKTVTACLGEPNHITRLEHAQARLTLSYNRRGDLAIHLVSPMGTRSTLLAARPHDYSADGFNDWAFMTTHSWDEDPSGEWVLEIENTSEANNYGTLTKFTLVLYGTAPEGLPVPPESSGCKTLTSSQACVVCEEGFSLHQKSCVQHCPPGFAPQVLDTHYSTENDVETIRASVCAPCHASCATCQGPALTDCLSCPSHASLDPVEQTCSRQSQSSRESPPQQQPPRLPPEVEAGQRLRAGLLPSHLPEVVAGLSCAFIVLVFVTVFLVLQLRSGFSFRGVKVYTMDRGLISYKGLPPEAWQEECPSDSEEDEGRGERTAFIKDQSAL

Kd [1]: 19.5 µM
IC50 [2]: 240 µM
IC50 [3]: 180 µM
IC50 [4]: 427 µM
IC50 [5]: 172 µM
IC50 [6]: 300 µM
SMILES: CCCCCCCC/C=C\CCCCCCC(O)C(=O)O (stereo not drawn) [2OHOA, 2-hydroxy-9-cis-ocadecenoic acid]

Source: PMC11996967, “Targeting the Notch-Furin axis with 2-hydroxyoleic acid: a key mechanism in glioblastoma therapy” (Cellular Oncology, 2024)
